Data as given in publication PMC8752738, “A propolis-derived small molecule ameliorates metabolic syndrome in obese mice by targeting the CREB/CRTC2 transcriptional complex” (Nature Communications, 2022).
Where “and” joins values, the source holds several entries; their conditions need not be identical. Identical values can stand only once.

Assay: Glucose, insulin, and pyruvate tolerance tests
Format: in vivo, mouse
Set-up: AUC of IGTT, Total Area / AUC analysis of ITT, Total Area / AUC of ITT, group mean / AUC of PTT, group mean / IGTT, Mean Diff. APC - VEH / IGTT, group mean (Mean 1, APC): unit not given beside the values
Details: for blood glucose, PTT in DIO, group mean / blood glucose, IGTT, mean / ITT, group mean: N=7; for blood glucose: OGTT in db/db; for IGTT, group mean (Mean 1, APC): n=8
Method: After overnight fasting, mice were i.p. injected or treated orally with D-glucose (1–2 g/kg) for glucose-tolerance tests (IGTT or OGTT) or injecting with sodium pyruvate (1–2 g/kg) for pyruvate tolerance tests (PTT). Insulin-tolerance tests (ITT) were performed by i.p. injection of insulin (1 U/kg) 2-h after food removal. […]

[1] = DIO and db/db mice, i.p. 20 mg/kg, 5 weeks

## CC(C)=CCc1cc(C=CC(=O)O)cc(CC=C(C)C)c1O [APC, 3,5-diprenyl-4-hydroxycinnamic acid]
[1]
  capability for gluconeogenesis (PTT): significantly inhibited
  whole-body insulin sensitivity (GTT and ITT): greatly enhanced
DIO mice, 0 mins of PTT, mean of APC group
  blood glucose, PTT in DIO, group mean: 98.23 mg/dL
DIO mice, 0 mins of PTT, single animals, n=7
  blood glucose, PTT in DIO: 79.2 mg/dL and 84.6 mg/dL and 104.4 mg/dL and 95.4 mg/dL and 124.2 mg/dL and 122.4 mg/dL and 77.4 mg/dL
DIO mice, 15 mins of PTT, mean of APC group
  blood glucose, PTT in DIO, group mean: 148.9 mg/dL
DIO mice, 15 mins of PTT, single animals, n=7
  blood glucose, PTT in DIO: 135 mg/dl and 153 mg/dl and 190.8 mg/dl and 156.6 mg/dl (2×) and 127.8 mg/dl and 122.4 mg/dl
DIO mice, 30 mins of PTT, mean of APC group
  blood glucose, PTT in DIO, group mean: 191.6 mg/dL
DIO mice, 30 mins of PTT, single animals, n=7
  blood glucose, PTT in DIO: 160.2 mg/dL and 192.6 mg/dL and 210.6 mg/dL and 185.4 mg/dL and 230.4 mg/dL and 187.2 mg/dL and 174.6 mg/dL
DIO mice, 60 mins of PTT, mean of APC group
  blood glucose, PTT in DIO, group mean: 174.9 mg/dL
DIO mice, 60 mins of PTT, single animals, n=7
  blood glucose, PTT in DIO: 129.6 mg/dL and 163.8 mg/dL and 210.6 mg/dL and 156.6 mg/dL and 248.4 mg/dL and 176.4 mg/dL and 138.6 mg/dL
DIO mice, 120 mins of PTT, mean of APC group
  blood glucose, PTT in DIO, group mean: 133.2 mg/dL
DIO mice, 120 mins of PTT, single animals, n=7
  blood glucose, PTT in DIO: 93.6 mg/dl and 126 mg/dl (2×) and 165.6 mg/dl and 178.2 mg/dl and 120.6 mg/dl and 122.4 mg/dl
DIO mice, Mean of APC, two-way RM ANOVA
  blood glucose, PTT in DIO, mean over all time points: 149.3 mg/dL
DIO mice, mean of APC group, n=7
  AUC of PTT, group mean: 631
DIO mice, single animals, n=7
  Total Area of PTT (AUC analysis of PTT): 511.2 and 614.7 and 747 and 609.3 and 757.8 and 641.7 and 535.5
Figure 8f, IGTT in DIO, 0 mins, group mean, VEH 112.9
  blood glucose, IGTT, mean: 93.09 mg/dL
Figure 8f, IGTT in DIO, 0 mins, individual mice
  blood glucose, IGTT: 109.80 mg/dl (2×) and 84.60 mg/dl (2×) and 72.00 mg/dl and 97.20 mg/dl and 93.60 mg/dl
Figure 8f, IGTT in DIO, 15 mins, group mean, VEH 362.1
  blood glucose, IGTT, mean: 364.4 mg/dL
Figure 8f, IGTT in DIO, 15 mins, individual mice
  blood glucose, IGTT: 243.00 mg/dL and 401.40 mg/dL and 361.80 mg/dL and 469.80 mg/dL and 279.00 mg/dL and 376.20 mg/dL and 419.40 mg/dL
Figure 8f, IGTT in DIO, 30 mins, group mean, VEH 448.5
  blood glucose, IGTT, mean: 358.7 mg/dL
Figure 8f, IGTT in DIO, 30 mins, individual mice
  blood glucose, IGTT: 198.00 mg/dL and 376.20 mg/dL and 453.60 mg/dL and 383.40 mg/dL and 358.20 mg/dL and 468.00 mg/dL and 273.60 mg/dL
Figure 8f, IGTT in DIO, 60 mins, group mean, VEH 351.8
  blood glucose, IGTT, mean: 257.9 mg/dL
Figure 8f, IGTT in DIO, 60 mins, individual mice
  blood glucose, IGTT: 171.00 mg/dL and 248.40 mg/dL and 298.80 mg/dL and 241.20 mg/dL and 307.80 mg/dL and 372.60 mg/dL and 165.60 mg/dL
Figure 8f, IGTT in DIO, 100 mins, group mean, VEH 222.7
  blood glucose, IGTT, mean: 157.1 mg/dL
Figure 8f, IGTT in DIO, 100 mins, individual mice
  blood glucose, IGTT: 140.40 mg/dL and 131.40 mg/dL and 176.40 mg/dL and 138.60 mg/dL and 207.00 mg/dL and 190.80 mg/dL and 115.20 mg/dL
Figure 8f, IGTT in DIO, individual mice
  AUC of IGTT, Total Area: 737.1 and 1134 and 1257 and 1200 and 1097 and 1359 and 958.5
Figure 8g, ITT in DIO, 0 mins, individual mice
  blood glucose, ITT: 163.8 mg/dl (2×) and 151.2 mg/dl and 124.2 mg/dl and 156.6 mg/dl (2×) and 160.2 mg/dl
Figure 8g, ITT in DIO, 15 mins, individual mice
  blood glucose, ITT: 91.8 mg/dL and 75.6 mg/dL and 79.2 mg/dL and 93.6 mg/dL and 97.2 mg/dL and 77.4 mg/dL and 108 mg/dL
Figure 8g, ITT in DIO, 30 mins, individual mice
  blood glucose, ITT: 88.2 mg/dl (2×) and 73.8 mg/dl and 93.6 mg/dl and 82.8 mg/dl and 68.4 mg/dl and 86.4 mg/dl
Figure 8g, ITT in DIO, 60 mins, individual mice
  blood glucose, ITT: 75.6 mg/dL and 88.2 mg/dL and 79.2 mg/dL and 93.6 mg/dL and 81 mg/dL and 61.2 mg/dL and 52.2 mg/dL
Figure 8g, ITT in DIO, 100 mins, individual mice
  blood glucose, ITT: 86.4 mg/dl (2×) and 124.2 mg/dl and 75.6 mg/dl and 88.2 mg/dl (2×) and 50.4 mg/dl
Figure 8g, ITT in DIO, individual mice
  AUC analysis of ITT, Total Area: 380.7 and 389.7 and 337.5 and 396.9 and 383.4 and 333 and 351.9
Figure 9g, Time 0.0 mins, single animals
  blood glucose: 320.4 mg/dL and 340.2 mg/dL and 352.8 mg/dL and 234.0 mg/dL and 396.0 mg/dL
Figure 9g, Time 30.0 mins, single animals
  blood glucose: 345.6 mg/dL and 576.0 mg/dL and 259.2 mg/dL and 268.2 mg/dL and 599.4 mg/dL
Figure 9g, Time 60.0 mins, single animals
  blood glucose: 334.8 mg/dL and 468.0 mg/dL and 158.4 mg/dL and 194.4 mg/dL and 502.2 mg/dL
Figure 9g, Time 90.0 mins, single animals
  blood glucose: 268.2 mg/dL and 486.0 mg/dL and 162.0 mg/dL and 203.4 mg/dL and 419.4 mg/dL
Figure 9g, db/db, group mean, n 5
  AUC of OGTT, mean: 1059
Figure 9g, db/db, single animals
  AUC of OGTT: 974.7 and 1457 and 675 and 681.3 and 1509
Figure 9g, mean over all time points and animals, N 20
  OGTT in db/db, column mean of blood glucose: 344.4 mg/dL
0 min, mean of APC group
  ITT, group mean: 153.8
15 min, mean of APC group
  ITT, group mean: 88.97
30 min, mean of APC group
  ITT, group mean: 83.06
60 min, mean of APC group
  ITT, group mean: 75.86
100 min, mean of APC group
  ITT, group mean: 85.63
db/db mice
  AUC of IGTT in db/db, difference between means (APC - VEH) ± SEM: -383.6 ± 97.97
db/db mice, 0 min
  IGTT, Mean Diff. APC - VEH: -33.3
  IGTT, group mean (Mean 1, APC): 142
db/db mice, 15 min
  IGTT, Mean Diff. APC - VEH: -2.925
  IGTT, group mean (Mean 1, APC): 441.9
db/db mice, 30 min
  IGTT, Mean Diff. APC - VEH: -145.1
  IGTT, group mean (Mean 1, APC): 281
